± gives the expanded uncertainty stated by the source.
Assay: refractive index (Na D-line) (dimensionless); xn = mol fraction of the nth substance listed
Conditions: 101.3 kPa, Liquid, Standard Abbe refractometry

CCCC[n+]1ccn(C)c1.O=S(=O)([N-]S(=O)(=O)C(F)(F)F)C(F)(F)F + COC(=O)OC
refractive index
Conditions | 303.15 K | 308.15 K | 313.15 K | 318.15 K | 323.15 K
x1 = 0.0512 | 1.3757 ± 0.0011 | 1.3741 ± 0.0011 | 1.3744 ± 0.0011 | 1.3724 ± 0.0011 | 1.3719 ± 0.0011
x1 = 0.101 | 1.3844 ± 0.0011 | 1.383 ± 0.0011 | 1.3836 ± 0.0011 | 1.3819 ± 0.0011 | 1.3817 ± 0.0011
x1 = 0.1495 | 1.3913 ± 0.0011 | 1.39 ± 0.0011 | 1.3907 ± 0.0011 | 1.3892 ± 0.0011 | 1.3893 ± 0.0011
x1 = 0.1945 | 1.3965 ± 0.0011 | 1.3953 ± 0.0011 | 1.3959 ± 0.0011 | 1.3946 ± 0.0011 | 1.3948 ± 0.0011
x1 = 0.2994 | 1.4053 ± 0.0011 | 1.4042 ± 0.0011 | 1.4042 ± 0.0011 | 1.403 ± 0.0011 | 1.4033 ± 0.0011
x1 = 0.3999 | 1.4106 ± 0.0011 | 1.4095 ± 0.0011 | 1.4089 ± 0.0011 | 1.4077 ± 0.0011 | 1.4078 ± 0.0011
x1 = 0.4976 | 1.4141 ± 0.0011 | 1.4131 ± 0.0011 | 1.4119 ± 0.0011 | 1.4107 ± 0.0011 | 1.4106 ± 0.0011
x1 = 0.5842 | 1.4165 ± 0.0011 | 1.4155 ± 0.0011 | 1.414 ± 0.0011 | 1.4128 ± 0.0011 | 1.4126 ± 0.0011
x1 = 0.6886 | 1.4191 ± 0.0011 | 1.4181 ± 0.0011 | 1.4166 ± 0.0011 | 1.4154 ± 0.0011 | 1.4149 ± 0.0011
x1 = 0.7475 | 1.4204 ± 0.0011 | 1.4195 ± 0.0011 | 1.418 ± 0.0011 | 1.4168 ± 0.0011 | 1.4162 ± 0.0011
x1 = 0.8014 | 1.4216 ± 0.0011 | 1.4207 ± 0.0011 | 1.4193 ± 0.0011 | 1.4181 ± 0.0011 | 1.4172 ± 0.0011
x1 = 0.889 | 1.4233 ± 0.0011 | 1.4223 ± 0.0011 | 1.4208 ± 0.0011 | 1.4196 ± 0.0011 | 1.4185 ± 0.0011
x1 = 0.9526 | 1.4242 ± 0.0011 | 1.423 ± 0.0011 | 1.4213 ± 0.0011 | 1.4199 ± 0.0011 | 1.4183 ± 0.0011
x1 = 1 | 1.4245 ± 0.0011 | 1.4231 ± 0.0011 | 1.421 ± 0.0011 | 1.4195 ± 0.0011 | 1.4173 ± 0.0011

From the NIST ThermoML archive (doi:10.1016/j.jct.2017.07.013)
